The text below walks through data of patent US11168073B2, “3,3-difluoroallylamines or salts thereof and pharmaceutical compositions comprising the same” (YUHAN CORPORATION, priority 2018, dated 2021).

Common to all, as to type: biochemical
In one assay the target is T1, recombinant human VAP-1 (Homo sapiens, UniProt Q16853).
T1 construct: purchased R&D systems
T1 sequence (Q16853 1-763): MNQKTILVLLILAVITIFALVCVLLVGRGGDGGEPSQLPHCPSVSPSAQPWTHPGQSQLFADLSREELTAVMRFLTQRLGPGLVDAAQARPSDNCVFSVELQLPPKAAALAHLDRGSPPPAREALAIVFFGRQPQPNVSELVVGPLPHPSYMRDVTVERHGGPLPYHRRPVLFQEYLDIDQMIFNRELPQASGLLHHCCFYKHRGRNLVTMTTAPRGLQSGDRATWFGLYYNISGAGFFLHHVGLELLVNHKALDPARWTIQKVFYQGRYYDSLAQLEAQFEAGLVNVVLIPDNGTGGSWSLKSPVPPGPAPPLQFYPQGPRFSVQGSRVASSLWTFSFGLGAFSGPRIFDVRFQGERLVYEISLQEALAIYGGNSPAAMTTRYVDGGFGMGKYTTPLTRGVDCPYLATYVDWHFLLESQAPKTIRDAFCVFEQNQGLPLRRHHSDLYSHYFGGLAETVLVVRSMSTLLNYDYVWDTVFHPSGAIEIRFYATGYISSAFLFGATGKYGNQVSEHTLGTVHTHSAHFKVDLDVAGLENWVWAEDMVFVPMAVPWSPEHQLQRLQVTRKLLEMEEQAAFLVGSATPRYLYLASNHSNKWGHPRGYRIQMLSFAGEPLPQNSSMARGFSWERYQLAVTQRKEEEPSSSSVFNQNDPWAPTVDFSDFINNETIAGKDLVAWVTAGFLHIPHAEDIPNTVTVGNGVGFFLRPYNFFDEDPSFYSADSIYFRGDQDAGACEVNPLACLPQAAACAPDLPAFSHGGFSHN
In words: Activity evaluation on recombinant human VAP-1 (Amplex Red/HRP-coupled hydrogen peroxide assay, benzylamine substrate). Conditions: read-out: Inhibitory Activity (IC50, nM) human VAP-1. The method, boiled down:
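Hydrogen peroxide from benzylamine (1 mM) oxidation by human recombinant VAP-1 detected via HRP-coupled Amplex Red (200 uM) fluorescence, kinetic over 1–2 h. Enzyme and compound preincubated 30 min at 37 °C, pH 7.4 phosphate; 8-point dose response, signal-rate decrease versus DMSO control fitted to four-parameter logistic for IC50.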

In assay [1] the target is T2, recombinant human MAO-A (monoamine oxidase-A) (Homo sapiens, UniProt P21397).
T2 construct: purchased Sigma-Aldrich
T2 sequence (P21397 1-527): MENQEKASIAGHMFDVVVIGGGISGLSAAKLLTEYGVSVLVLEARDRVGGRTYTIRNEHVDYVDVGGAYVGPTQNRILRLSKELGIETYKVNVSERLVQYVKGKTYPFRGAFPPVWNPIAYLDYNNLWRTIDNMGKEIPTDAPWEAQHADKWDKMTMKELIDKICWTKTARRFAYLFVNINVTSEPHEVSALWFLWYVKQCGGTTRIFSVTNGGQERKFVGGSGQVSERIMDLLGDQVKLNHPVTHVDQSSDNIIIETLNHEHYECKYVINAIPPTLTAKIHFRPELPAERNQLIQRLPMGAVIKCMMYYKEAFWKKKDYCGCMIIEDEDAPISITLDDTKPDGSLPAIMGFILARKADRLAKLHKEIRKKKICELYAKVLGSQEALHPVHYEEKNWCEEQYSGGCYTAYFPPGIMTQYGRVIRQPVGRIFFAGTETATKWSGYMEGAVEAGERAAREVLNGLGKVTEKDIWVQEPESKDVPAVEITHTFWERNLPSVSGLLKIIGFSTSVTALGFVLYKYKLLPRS
In words: Activity evaluation on recombinant human MAO-A (Amplex Red/HRP-coupled assay, 0.5 mM tyramine substrate). The conditions noted are these: read-out: Inhibitory Activity (IC50, nM) MAO-A. In outline: (§1)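 8-pt 1:3 dilution series, final DMSO <1%; 30 min 37 °C preincubation w/ enzyme, 50 mM Na phosphate pH 7.4; + 200 uM Amplex Red, 1 U/mL HRP, substrate (MAO-A tyramine 0.5 mM; MAO-B benzylamine 1 mM; DAO putrescine 1 mM); fluor. rate 544/590 nm, 1-2 h; 4-param IC50.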

Assay [2] addresses T3, recombinant human MAO-B (monoamine oxidase-B) (Homo sapiens, UniProt P27338).
T3 construct: purchased Sigma-Aldrich
T3 sequence (P27338 1-520): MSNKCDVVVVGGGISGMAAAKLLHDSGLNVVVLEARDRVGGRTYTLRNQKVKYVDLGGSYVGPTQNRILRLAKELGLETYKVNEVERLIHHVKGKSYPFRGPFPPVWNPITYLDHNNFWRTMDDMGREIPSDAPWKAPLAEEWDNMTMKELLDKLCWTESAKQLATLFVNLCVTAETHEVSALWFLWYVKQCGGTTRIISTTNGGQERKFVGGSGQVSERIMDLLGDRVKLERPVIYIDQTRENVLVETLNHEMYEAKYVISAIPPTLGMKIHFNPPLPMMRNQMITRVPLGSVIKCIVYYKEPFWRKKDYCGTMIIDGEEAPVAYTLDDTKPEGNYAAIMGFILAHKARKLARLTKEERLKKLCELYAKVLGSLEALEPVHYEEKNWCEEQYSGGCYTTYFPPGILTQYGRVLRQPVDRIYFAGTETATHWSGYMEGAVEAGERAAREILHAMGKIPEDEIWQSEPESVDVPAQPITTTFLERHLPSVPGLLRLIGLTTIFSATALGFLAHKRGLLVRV
In words: Activity evaluation on recombinant human MAO-B (Amplex Red/HRP-coupled assay, 1 mM benzylamine substrate). The conditions noted are these: read-out: Inhibitory Activity (IC50, nM) MAO-B. In outline:
as §1

Assay [3] deals with T4, recombinant human DAO (diamine oxidase) (Homo sapiens, UniProt P19801).
T4 construct: purchased R&D systems
T4 sequence (P19801 20-751): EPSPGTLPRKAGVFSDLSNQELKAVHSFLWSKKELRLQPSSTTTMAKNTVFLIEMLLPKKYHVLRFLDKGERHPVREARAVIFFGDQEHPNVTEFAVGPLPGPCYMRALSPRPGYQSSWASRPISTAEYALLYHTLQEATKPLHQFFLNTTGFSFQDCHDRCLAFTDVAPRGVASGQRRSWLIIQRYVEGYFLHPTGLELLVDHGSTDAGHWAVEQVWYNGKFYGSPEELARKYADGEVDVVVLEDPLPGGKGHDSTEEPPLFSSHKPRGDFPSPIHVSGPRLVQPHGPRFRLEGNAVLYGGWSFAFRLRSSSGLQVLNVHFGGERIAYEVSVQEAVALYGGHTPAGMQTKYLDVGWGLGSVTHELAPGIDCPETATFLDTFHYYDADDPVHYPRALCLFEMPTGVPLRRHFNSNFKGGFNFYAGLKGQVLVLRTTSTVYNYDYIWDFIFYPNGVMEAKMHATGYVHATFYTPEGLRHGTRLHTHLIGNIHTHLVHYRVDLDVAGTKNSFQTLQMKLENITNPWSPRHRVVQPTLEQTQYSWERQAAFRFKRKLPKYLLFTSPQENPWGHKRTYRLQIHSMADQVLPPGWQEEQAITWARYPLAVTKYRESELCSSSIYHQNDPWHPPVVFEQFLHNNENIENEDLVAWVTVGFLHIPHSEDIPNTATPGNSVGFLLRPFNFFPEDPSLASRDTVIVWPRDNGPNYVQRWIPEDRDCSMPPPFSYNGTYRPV
In words: Activity evaluation on recombinant human DAO (Amplex Red/HRP-coupled assay, 1 mM putrescine substrate). Conditions: read-out: Inhibitory Activity (IC50, nM) DAO. In outline: as §1

[4] abbreviates: recombinant human VAP-1, 30 min preincubation at 37° C., 1 mM benzylamine.
[5] abbreviates: recombinant human VAP-1, benzylamine substrate.

Counter-ions that a name gives are not always drawn. Like-named read-outs stand apart in the source and are kept apart here. Where only a bound is given, the exact number is not on record here.

As to `NCC(Cn1ncn(-c2cccc(-c3ccc(N4CCNCC4)cc3)c2)c1=O)=C(F)F` [Example 18, 2-[2-(aminomethyl)-3,3-difluoro-allyl]-4-[3-(4-piperazin-1-ylphenyl)phenyl]-1,2,4-triazol-3-one Ditrifluoroacetate], the IC50 was 15 nM on recombinant human VAP-1 (setting [4]), greater than 100000 nM in assay [1] (0.5 mM tyramine), greater than 100000 nM in assay [2] (1 mM benzylamine) and 13000 nM in assay [3] (1 mM putrescine).
As for `CCn1cc(-c2ccc3sc(Cn4cnn(CC(CN)=C(F)F)c4=O)cc3c2)cn1` [Example 212, 2-[2-(aminomethyl)-3,3-difluoro-allyl]-4-[[5-(1-ethylpyrazol-4-yl)benzothiophen-2-yl]methyl]-1,2,4-triazol-3-one Trifluoroacetate], the IC50 is 1.5 nM at recombinant human VAP-1 (setting [5]), 79100 nM in assay [1] (0.5 mM tyramine substrate), greater than 100000 nM in assay [2] (1 mM benzylamine substrate) and 4320 nM in assay [3] (1 mM putrescine substrate).
As to `CN1C(=O)CCc2cc(-c3cc(-n4cnn(CC(CN)=C(F)F)c4=O)ccn3)ccc21` [Example 66, 6-[4-[1-[2-(aminomethyl)-3,3-difluoro-allyl]-5-oxo-1,2,4-triazol-4-yl]-2-pyridyl]-1-methyl-3,4-dihydroquinolin-2-one Trifluoroacetate], the IC50 at recombinant human VAP-1 (setting [4]) was 0.6 nM; in assay [1] (0.5 mM tyramine), greater than 100000 nM; in assay [2] (1 mM benzylamine), 4800 nM; in assay [3] (1 mM putrescine) it was 250 nM.
The like results for `NCC(Cn1ncn(-c2ccnc(Br)c2)c1=O)=C(F)F` [Example 10, 2-[2-(aminomethyl)-3,3-difluoro-allyl]-4-(2-bromo-4-pyridyl)-1,2,4-triazol-3-one Trifluoroacetate] were, in that order, 7.7 nM, greater than 100000 nM, greater than 100000 nM and 1200 nM.
The like results for `NCC(Cn1ncn(-c2cccc(-c3ccc(C(F)(F)F)nc3)n2)c1=O)=C(F)F` [Example 48, 2-[2-(aminomethyl)-3,3-difluoro-allyl]-4-[6-[6-(trifluoromethyl)-3-pyridyl]-2-pyridyl]-1,2,4-triazol-3-one Trifluoroacetate] were, in that order, 1 nM, greater than 100000 nM, 31000 nM and 61 nM.
As for `NCC(Cn1ncn(-c2cccc(-c3ccc(N4CCNCC4)nc3)n2)c1=O)=C(F)F` [Example 213, 2-[2-(aminomethyl)-3,3-difluoro-allyl]-4-[6-(6-piperazin-1-yl-3-pyridyl)-2-pyridyl]-1,2,4-triazol-3-one Ditrifluoroacetate], the IC50 at recombinant human VAP-1 (setting [5]) is 2.5 nM; in assay [1] (0.5 mM tyramine substrate) it was greater than 100000 nM; in assay [2] (1 mM benzylamine substrate) it was greater than 100000 nM; in assay [3] (1 mM putrescine substrate) it was 1300 nM.
With `Cc1c(-c2ccc(N(C)C)nc2)cccc1-n1cnn(CC(CN)=C(F)F)c1=O` [Example 256, 2-[2-(aminomethyl)-3,3-difluoro-allyl]-4-[3-[6-(dimethylamino)-3-pyridyl]-2-methyl-phenyl]-1,2,4-triazol-3-one Trifluoroacetate], the IC50 on recombinant human VAP-1 (setting [5]) was 2.5 nM; in assay [1] (0.5 mM tyramine substrate) it was greater than 100000 nM; in assay [2] (1 mM benzylamine substrate), greater than 100000 nM; in assay [3] (1 mM putrescine substrate) it was greater than 100000 nM.
With `Cc1cc(-c2ccc3c(c2)NC(=O)CO3)cnc1-n1cnn(CC(CN)=C(F)F)c1=O` [Example 221, 6-[6-[1-[2-(aminomethyl)-3,3-difluoro-allyl]-5-oxo-1,2,4-triazol-4-yl]-5-methyl-3-pyridyl]-4H-1,4-benzoxazin-3-one Trifluoroacetate], the IC50 was determined as 0.3 nM on recombinant human VAP-1 (setting [5]), 20000 nM in assay [1] (0.5 mM tyramine substrate), 9000 nM in assay [2] (1 mM benzylamine substrate) and 2700 nM in assay [3] (1 mM putrescine substrate).
For `Cc1cc(C#Cc2cnc3c(c2)NC(=O)CO3)cnc1-n1cnn(CC(CN)=C(F)F)c1=O` [Example 247, 7-[2-[6-[1-[2-(aminomethyl)-3,3-difluoro-allyl]-5-oxo-1,2,4-triazol-4-yl]-5-methyl-3-pyridyl]ethynyl]-1H-pyrido[2,3-b][1,4]oxazin-2-one Trifluoroacetate], in that order: 0.3 nM, greater than 100000 nM, greater than 100000 nM and 43000 nM.
The like results for `COCCNc1ncc(-c2cnc(-n3cnn(CC(CN)=C(F)F)c3=O)c(C)c2)cn1` [Example 222, 2-[2-(aminomethyl)-3,3-difluoro-allyl]-4-[5-[2-(2-methoxyethylamino)pyrimidin-5-yl]-3-methyl-2-pyridyl]-1,2,4-triazol-3-one Trifluoroacetate] were, in that order, 1 nM, greater than 100000 nM, greater than 100000 nM and 4000 nM.
Take `CS(=O)(=O)c1ccc(-c2ccc3cc(Cn4cnn(CC(CN)=C(F)F)c4=O)sc3c2)cc1` [Example 197, 2-[2-(aminomethyl)-3,3-difluoro-allyl]-4-[[6-(4-methylsulfonylphenyl)benzothiophen-2-yl]methyl]-1,2,4-triazol-3-one trifluoroacetate]: the IC50 at recombinant human VAP-1 (setting [5]) was 0.8 nM; in assay [1] (0.5 mM tyramine substrate) it was greater than 100000 nM; in assay [2] (1 mM benzylamine substrate) it was 18000 nM; in assay [3] (1 mM putrescine substrate) it was 2400 nM.

One may read the IC50 as the concentration needed to halve the response being measured.
